Peptide text beside a SMILES is read from it.
Target: T1, GC-C receptor (Homo sapiens, UniProt P25092)
T1 construct: endogenous in cells; host or cells: T-84 cells
Test: GC-C receptor T-84 cell assay (toxicity, cGMP levels) of culture filtrates
Assay type: cell-based
Conditions: relative to native STh; culture filtrate; ^2 = no detectable toxicity, set to detection limit 0.0014
Procedure: T-84 cells were seeded and cultured in each well of a 24 well plate. After removing the Dulbecco's modified Eagle's medium (DMEM:F12 (1:1) Lonza Walkersville, Inc.), cells were washed 3 times with 0.5 mL DMEM. Cells were incubated with 0.25 mL DMEM containing 1 mM 3-isobutyl-1-methylxanthine (IBMX) for 10 min at 37° C. 0.1 mL of sample (culture filtrate) was added to each well and incubated for 60 min at 37° C. Following incubation, the reaction medium was aspirated, and the cells were lysed with […] HCl at room temperature for 20 min. The lysates were centrifuged at top speed for 10 min and the cGMP levels were measured in control- and agonist-stimulated cells with a direct cGMP enzyme immunoassay kit (Enzo Life Sciences, Inc.) according to the manufacturer's instructions.
The culture filtrate of each mutant was added to the T-84 cells in duplicate, and a serial dilution of culture filtrates with recombinantly expressed native ST was used to generate a standard curve.
Toxicity measured in culture filtrates is a product of intrinsic toxicity (toxicity per mol) and the concentration of the ST mutant. The same is true for antigenicity. […] Since we have no method for accurately measuring ST (mutant) concentrations in culture filtrates, we are not able to directly measure intrinsic toxicities and antigenicities for the ST mutants.
To circumvent this problem we measure toxicity and antigenicity for the ST mutants relative to native ST. This allows us to describe changes in toxicity and antigenicity in mutant culture filtrates. Next, we divide the change in antigenicity by the change in toxicity for each mutant. If the same culture filtrate has been used to measure toxicity and antigenicity this allows us to eliminate the of the concentration.

T1 sequence (P25092 24-1073): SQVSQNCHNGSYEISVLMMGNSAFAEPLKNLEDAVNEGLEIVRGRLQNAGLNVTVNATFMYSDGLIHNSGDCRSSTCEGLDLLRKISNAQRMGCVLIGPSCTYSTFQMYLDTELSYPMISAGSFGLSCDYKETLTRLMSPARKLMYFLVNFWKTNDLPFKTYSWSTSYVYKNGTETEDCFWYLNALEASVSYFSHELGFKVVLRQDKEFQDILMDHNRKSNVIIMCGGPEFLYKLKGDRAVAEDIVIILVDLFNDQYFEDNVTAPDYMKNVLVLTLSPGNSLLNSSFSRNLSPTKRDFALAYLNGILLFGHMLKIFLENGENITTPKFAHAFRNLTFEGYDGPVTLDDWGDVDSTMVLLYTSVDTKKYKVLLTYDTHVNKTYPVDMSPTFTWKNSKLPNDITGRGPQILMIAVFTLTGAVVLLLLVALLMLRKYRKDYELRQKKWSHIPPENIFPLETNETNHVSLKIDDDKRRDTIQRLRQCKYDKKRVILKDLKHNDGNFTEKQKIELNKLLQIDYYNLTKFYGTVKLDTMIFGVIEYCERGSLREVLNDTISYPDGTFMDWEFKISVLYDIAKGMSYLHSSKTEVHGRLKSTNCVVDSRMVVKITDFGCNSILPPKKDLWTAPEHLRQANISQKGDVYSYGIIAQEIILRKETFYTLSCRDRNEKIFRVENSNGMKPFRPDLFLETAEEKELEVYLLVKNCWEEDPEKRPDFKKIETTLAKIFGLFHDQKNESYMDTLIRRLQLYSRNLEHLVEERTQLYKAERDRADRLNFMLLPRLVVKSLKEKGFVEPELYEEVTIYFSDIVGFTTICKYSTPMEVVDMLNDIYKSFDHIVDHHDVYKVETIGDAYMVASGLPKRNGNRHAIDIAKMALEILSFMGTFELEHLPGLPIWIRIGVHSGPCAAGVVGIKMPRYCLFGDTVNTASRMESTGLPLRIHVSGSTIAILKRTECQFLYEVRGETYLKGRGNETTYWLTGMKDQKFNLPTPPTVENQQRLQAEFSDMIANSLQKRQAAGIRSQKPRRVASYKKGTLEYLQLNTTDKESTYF

Structure (SMILES)	Toxicity
CC(C)C[C@@H]1NC(=O)[C@H](CCC(=O)O)NC(=O)[C@@H]2CSSC[C@@H]3NC(=O)[C@H]([C@@H](C)O)NC(=O)[C@@H]4CCCN4C(=O)[C@H](CC(N)=O)NC(=O)[C@H](CSSC[C@H](NC(=O)[C@H](Cc4ccc(O)cc4)NC(=O)[C@H](CC(N)=O)NC(=O)[C@H](CO)NC(=O)[C@H](CO)NC(=O)[C@@H](N)CC(N)=O)C(=O)N2)NC(=O)[C@H](CSSC[C@@H](C(=O)N[C@@H](Cc2ccc(O)cc2)C(=O)O)NC(=O)CNC(=O)[C@H]([C@@H](C)O)NC3=O)NC1=O [Mutant A14T] (HELM PEPTIDE1{N.S.S.N.Y.C.C.E.L.C.C.N.P.T.C.T.G.C.Y}$PEPTIDE1,PEPTIDE1,6:R3-11:R3|PEPTIDE1,PEPTIDE1,7:R3-15:R3|PEPTIDE1,PEPTIDE1,10:R3-18:R3$$$V2.0)	< 0.0014^2
CC(C)C[C@@H]1NC(=O)[C@H](CCC(=O)O)NC(=O)[C@@H]2CSSC[C@@H]3NC(=O)[C@H](C)NC(=O)[C@@H]4CCCN4C(=O)[C@H](CC(N)=O)NC(=O)[C@H](CSSC[C@H](NC(=O)[C@H](Cc4ccc(O)cc4)NC(=O)[C@H](CC(N)=O)NC(=O)[C@H](CO)NC(=O)[C@H](CC(N)=O)NC(=O)[C@@H](N)CC(N)=O)C(=O)N2)NC(=O)[C@H](CSSC[C@@H](C(=O)N[C@@H](Cc2ccc(O)cc2)C(=O)O)NC(=O)CNC(=O)[C@H]([C@@H](C)O)NC3=O)NC1=O [Mutant S02N] (HELM PEPTIDE1{N.N.S.N.Y.C.C.E.L.C.C.N.P.A.C.T.G.C.Y}$PEPTIDE1,PEPTIDE1,6:R3-11:R3|PEPTIDE1,PEPTIDE1,7:R3-15:R3|PEPTIDE1,PEPTIDE1,10:R3-18:R3$$$V2.0)	0.7308
CC(C)C[C@@H]1NC(=O)[C@H](CCC(=O)O)NC(=O)[C@@H]2CSSC[C@@H]3NC(=O)[C@H](C)NC(=O)[C@@H]4CCCN4C(=O)[C@H](CC(N)=O)NC(=O)[C@H](CSSC[C@H](NC(=O)[C@H](Cc4ccc(O)cc4)NC(=O)[C@H](CC(N)=O)NC(=O)[C@H](Cc4ccccc4)NC(=O)[C@H](CO)NC(=O)[C@@H](N)CC(N)=O)C(=O)N2)NC(=O)[C@H](CSSC[C@@H](C(=O)N[C@@H](Cc2ccc(O)cc2)C(=O)O)NC(=O)CNC(=O)[C@H]([C@@H](C)O)NC3=O)NC1=O [Mutant S03F] (HELM PEPTIDE1{N.S.F.N.Y.C.C.E.L.C.C.N.P.A.C.T.G.C.Y}$PEPTIDE1,PEPTIDE1,6:R3-11:R3|PEPTIDE1,PEPTIDE1,7:R3-15:R3|PEPTIDE1,PEPTIDE1,10:R3-18:R3$$$V2.0)	0.3871
CC(C)C[C@@H]1NC(=O)[C@H](CCCNC(=N)N)NC(=O)[C@@H]2CSSC[C@@H]3NC(=O)[C@H](C)NC(=O)[C@@H]4CCCN4C(=O)[C@H](CC(N)=O)NC(=O)[C@H](CSSC[C@H](NC(=O)[C@H](Cc4ccc(O)cc4)NC(=O)[C@H](CC(N)=O)NC(=O)[C@H](CO)NC(=O)[C@H](CO)NC(=O)[C@@H](N)CC(N)=O)C(=O)N2)NC(=O)[C@H](CSSC[C@@H](C(=O)N[C@@H](Cc2ccc(O)cc2)C(=O)O)NC(=O)CNC(=O)[C@H]([C@@H](C)O)NC3=O)NC1=O [Mutant E08R] (HELM PEPTIDE1{N.S.S.N.Y.C.C.R.L.C.C.N.P.A.C.T.G.C.Y}$PEPTIDE1,PEPTIDE1,6:R3-11:R3|PEPTIDE1,PEPTIDE1,7:R3-15:R3|PEPTIDE1,PEPTIDE1,10:R3-18:R3$$$V2.0)	0.0021
CC(C)C[C@@H]1NC(=O)[C@H](CCC(=O)O)NC(=O)[C@@H]2CSSC[C@@H]3NC(=O)[C@H](Cc4c[nH]cn4)NC(=O)[C@@H]4CCCN4C(=O)[C@H](CC(N)=O)NC(=O)[C@H](CSSC[C@H](NC(=O)[C@H](Cc4ccc(O)cc4)NC(=O)[C@H](CC(N)=O)NC(=O)[C@H](CO)NC(=O)[C@H](CO)NC(=O)[C@@H](N)CC(N)=O)C(=O)N2)NC(=O)[C@H](CSSC[C@@H](C(=O)N[C@@H](Cc2ccc(O)cc2)C(=O)O)NC(=O)CNC(=O)[C@H]([C@@H](C)O)NC3=O)NC1=O [Mutant A14H] (HELM PEPTIDE1{N.S.S.N.Y.C.C.E.L.C.C.N.P.H.C.T.G.C.Y}$PEPTIDE1,PEPTIDE1,6:R3-11:R3|PEPTIDE1,PEPTIDE1,7:R3-15:R3|PEPTIDE1,PEPTIDE1,10:R3-18:R3$$$V2.0)	< 0.0014^2
CC[C@H](C)[C@@H]1NC(=O)[C@@H]2CCCN2C(=O)[C@H](CC(N)=O)NC(=O)[C@@H]2CSSC[C@H](NC(=O)[C@H](Cc3ccc(O)cc3)NC(=O)[C@H](CC(N)=O)NC(=O)[C@H](CO)NC(=O)[C@H](CO)NC(=O)[C@@H](N)CC(N)=O)C(=O)N[C@H]3CSSC[C@H](NC1=O)C(=O)N[C@@H]([C@@H](C)O)C(=O)NCC(=O)N[C@H](C(=O)N[C@@H](Cc1ccc(O)cc1)C(=O)O)CSSC[C@H](NC(=O)[C@H](CC(C)C)NC(=O)[C@H](CCC(=O)O)NC3=O)C(=O)N2 [Mutant A14I] (HELM PEPTIDE1{N.S.S.N.Y.C.C.E.L.C.C.N.P.I.C.T.G.C.Y}$PEPTIDE1,PEPTIDE1,6:R3-11:R3|PEPTIDE1,PEPTIDE1,7:R3-15:R3|PEPTIDE1,PEPTIDE1,10:R3-18:R3$$$V2.0)	< 0.0014^2
CC(C)C[C@@H]1NC(=O)[C@H](CCC(=O)O)NC(=O)[C@@H]2CSSC[C@@H]3NC(=O)[C@H](C)NC(=O)[C@@H]4CCCN4C(=O)[C@H](CC(N)=O)NC(=O)[C@H](CSSC[C@H](NC(=O)[C@H](Cc4ccc(O)cc4)NC(=O)[C@H](CC(N)=O)NC(=O)[C@H](CO)NC(=O)[C@H](CO)NC(=O)[C@@H](N)CC(N)=O)C(=O)N2)NC(=O)[C@H](CSSC[C@@H](C(=O)N[C@@H](Cc2ccc(O)cc2)C(=O)O)NC(=O)CNC(=O)[C@H](CCCNC(=N)N)NC3=O)NC1=O [Mutant T16R] (HELM PEPTIDE1{N.S.S.N.Y.C.C.E.L.C.C.N.P.A.C.R.G.C.Y}$PEPTIDE1,PEPTIDE1,6:R3-11:R3|PEPTIDE1,PEPTIDE1,7:R3-15:R3|PEPTIDE1,PEPTIDE1,10:R3-18:R3$$$V2.0)	0.0111
CC(C)C[C@@H]1NC(=O)[C@H](CCC(=O)O)NC(=O)[C@@H]2CSSC[C@@H]3NC(=O)[C@H](C)NC(=O)[C@@H]4CCCN4C(=O)[C@H](CC(N)=O)NC(=O)[C@H](CSSC[C@H](NC(=O)[C@H](Cc4ccc(O)cc4)NC(=O)[C@H](CC(N)=O)NC(=O)[C@H](CO)NC(=O)[C@H](CO)NC(=O)[C@@H](N)CC(N)=O)C(=O)N2)NC(=O)[C@H](CSSC[C@@H](C(=O)N[C@@H](Cc2ccc(O)cc2)C(=O)O)NC(=O)[C@H](Cc2ccc(O)cc2)NC(=O)[C@H]([C@@H](C)O)NC3=O)NC1=O [Mutant G17Y] (HELM PEPTIDE1{N.S.S.N.Y.C.C.E.L.C.C.N.P.A.C.T.Y.C.Y}$PEPTIDE1,PEPTIDE1,6:R3-11:R3|PEPTIDE1,PEPTIDE1,7:R3-15:R3|PEPTIDE1,PEPTIDE1,10:R3-18:R3$$$V2.0)	0.0234
CC(C)C[C@@H]1NC(=O)[C@H](CCC(=O)O)NC(=O)[C@@H]2CSSC[C@@H]3NC(=O)[C@H](C)NC(=O)[C@@H]4CCCN4C(=O)[C@H](CCCCN)NC(=O)[C@H](CSSC[C@H](NC(=O)[C@H](Cc4ccc(O)cc4)NC(=O)[C@H](CC(N)=O)NC(=O)[C@H](CO)NC(=O)[C@H](CO)NC(=O)[C@@H](N)CC(N)=O)C(=O)N2)NC(=O)[C@H](CSSC[C@@H](C(=O)N[C@@H](Cc2ccc(O)cc2)C(=O)O)NC(=O)CNC(=O)[C@H]([C@@H](C)O)NC3=O)NC1=O [Mutant N12K] (HELM PEPTIDE1{N.S.S.N.Y.C.C.E.L.C.C.K.P.A.C.T.G.C.Y}$PEPTIDE1,PEPTIDE1,6:R3-11:R3|PEPTIDE1,PEPTIDE1,7:R3-15:R3|PEPTIDE1,PEPTIDE1,10:R3-18:R3$$$V2.0)	0.5113
CC(C)C[C@@H]1NC(=O)[C@H](CCC(=O)O)NC(=O)[C@@H]2CSSC[C@@H]3NC(=O)[C@H](C)NC(=O)[C@@H]4CCCN4C(=O)[C@H](CC(N)=O)NC(=O)[C@H](CSSC[C@H](NC(=O)[C@H](Cc4ccc(O)cc4)NC(=O)[C@H](CC(C)C)NC(=O)[C@H](CO)NC(=O)[C@H](CO)NC(=O)[C@@H](N)CC(N)=O)C(=O)N2)NC(=O)[C@H](CSSC[C@@H](C(=O)N[C@@H](Cc2ccc(O)cc2)C(=O)O)NC(=O)CNC(=O)[C@H]([C@@H](C)O)NC3=O)NC1=O [Mutant N04L] (HELM PEPTIDE1{N.S.S.L.Y.C.C.E.L.C.C.N.P.A.C.T.G.C.Y}$PEPTIDE1,PEPTIDE1,6:R3-11:R3|PEPTIDE1,PEPTIDE1,7:R3-15:R3|PEPTIDE1,PEPTIDE1,10:R3-18:R3$$$V2.0)	0.2934
CSCC[C@H](N)C(=O)N[C@@H](CO)C(=O)N[C@@H](CO)C(=O)N[C@@H](CC(N)=O)C(=O)N[C@@H](Cc1ccc(O)cc1)C(=O)N[C@H]1CSSC[C@@H]2NC(=O)[C@@H]3CSSC[C@@H](C(=O)N[C@@H](Cc4ccc(O)cc4)C(=O)O)NC(=O)CNC(=O)[C@H]([C@@H](C)O)NC(=O)[C@H](CSSC[C@H](NC1=O)C(=O)N[C@@H](CCC(=O)O)C(=O)N[C@@H](CC(C)C)C(=O)N3)NC(=O)[C@H](C)NC(=O)[C@@H]1CCCN1C(=O)[C@H](CC(N)=O)NC2=O [Mutant N01M] (HELM PEPTIDE1{M.S.S.N.Y.C.C.E.L.C.C.N.P.A.C.T.G.C.Y}$PEPTIDE1,PEPTIDE1,6:R3-11:R3|PEPTIDE1,PEPTIDE1,7:R3-15:R3|PEPTIDE1,PEPTIDE1,10:R3-18:R3$$$V2.0)	1.8910
